Data set [1] deals with non-growing S. aureus DSM2569. The data set is described as follows: Dilution-regrowth assay (OD600, start-growth-time) on stationary-phase S. aureus. It counts as cell-based, Staphylococcus aureus. The conditions noted are these: for OD600 at 8hr, Mean: after dilution into drug-free medium; for Regrowth, OD600 at 6h or 8h after dilution into drug-free medium: average. As for the experimental part:
The cultures were grown and treated for 24 h in 1:4 CA-MHB (pH 7.4).
This approach allowed us to capture the time when cultures reached a threshold optical density (start-growth-time, SGT[15]).
The cultures were incubated for 24 h in non-baffled Erlenmeyer flasks at 37 °C with shaking at 200 rpm.
For P. aeruginosa and S. aureus, dose–response analysis was conducted in 96-well plates with a 200 μl assay volume, following the procedure used for screening assay validation experiments. […] Stock solutions were prepared and stored according to the manufacturers’ instructions, then diluted in 10% DMSO before use. Cultures were incubated for 24 h in 1:4 diluted CA-MHB medium under the same conditions used for UPEC cultivation. In preliminary experiments, each compound was tested at a concentration of 20 μM in the dilution-regrowth assay with 4 technical replicates. Regrowth was monitored using a microplate reader at 37 °C with continuous shaking, and OD600 was recorded every 20 min. The time at which OD600 exceeded the threshold of 0.12 was recorded as the Start_Growth-Time.
Statistical significance of the drug effects was assessed using a one-way ANOVA followed by Dunnett’s test, comparing each treatment to the drug-free control. Statistical significance of the differences in chemical characteristics between the hit compounds and the Prestwick library was assessed using a Mann–Whitney test. Statistical significance was set at P ≤ 0.05. A five-parameter logistic equation was used for asymmetric sigmoidal curve fitting and for EC50 and IC50 determination. The Venn diagram in Fig. 1F was prepared using BioVenn web application. Characteristics of the chemical and physical properties of Prestwick library compounds were obtained from Supplementary Table S1 from reference. Characteristics of the hit compounds not included in the Prestwick library were retrieved from the PubChem database.

Data set [2] concerns non-growing P. aeruginosa. The data set is described as follows: Time-dependent effects of drug treatment on regrowth, P. aeruginosa. It counts as cell-based, Pseudomonas aeruginosa. The conditions noted are these: 10 µM, OD600 8 h after dilution. Here is the method:
For screening and concentration-dependent characterization of the hit compounds, we used a 24-h incubation to capture their effects, although the actual onset of their activity may occur much sooner. To assess the speed of action, we treated stationary-phase cultures of three organisms with compounds that had previously shown a strong regrowth delay at 10 µM. We selected compounds that, in earlier tests, strongly delayed regrowth, such that diluted cultures remained below an OD600 of 0.12 (indicating no growth) after 6 h for UPEC or 8 h for P. aeruginosa and S. aureus in drug-free medium.
We collected samples at different times during the 24-h incubation, diluted them 2500-fold, and measured the OD600 after 6 or 8 h of further incubation, respectively. […] Rifampicin acts quickly against non-growing S. aureus, while the effects of the other compounds increase gradually during incubation but are already apparent within the first hour of treatment.
Bacteria were cultivated in 1:4 diluted CA-MHB (40 mM HEPES, pH 7.4) for 24 h. Aliquots were dispensed into a 96-well plate, and compounds were added at a 10 µM concentration. Samples were collected at designated time points, diluted 2500-fold as described for the dilution-regrowth assay, and incubated in standing plates within a humid box at 37 °C. The OD600 of the samples was measured to assess regrowth using a microplate reader (BioTek Synergy H1) after 6 h for UPEC and 8 h for P. aeruginosa and S. aureus. The experiment was performed in triplicates.

Data set [3] deals with SOS response in UPEC CFT073. The data set is described as follows: SOS response induction analysis, pAED2 cda' promoter mScarlet-I reporter. It counts as cell-based, Escherichia coli. The following applies: for induction of the SOS response in growing UPEC cultures / growth inhibition of growing UPEC: 20 μM; for induction of the SOS response in growing UPEC cultures: 6 h, MMC, BLE, ECH in 1:4 CA-MHB pH 7.4, PLI, SAT, EVO in LPM pH 5.5; for growth inhibition of growing UPEC: LPM pH 5.5, Fig. S7C,D. Here is the method: Since we aimed to test SOS induction in non-growing cultures, it was essential to use a reporter with no leaky expression in the stationary phase. Therefore, we constructed the plasmid pAED2, based on the low copy-number plasmid pSC101, which contains the cda’ promoter in front of the mScarlet-I-encoding reporter gene.
Overnight cultures of CFT073 harboring a reporter plasmid were grown in 3 ml of LB supplemented with 100 µg/ml carbenicillin (Cb), then diluted 1:100 into the medium used for testing. For validation of the pANO1::cda’ reporter, an overnight culture was diluted into CA-MHB (supplemented with 40 mM HEPES, pH 7.4, and 100 µg/ml Cb) and grown to an OD600 ≈ 0.5 at 37 °C with shaking at 200 rpm in an Erlenmeyer flask. […] Empty wells were filled with water. […] The experiment was performed in triplicate.
For analysis of the SOS induction by anti-cancer compounds, the overnight cultures were diluted either into 1:4 diluted CA-MHB (40 mM HEPES, pH 7.4) or LPM (30 mM MES, pH 5.5) that were supplemented with 100 µg/ml Cb. For analysis of the effect on growing bacteria, the cultures were incubated at 37 °C with shaking at 200 rpm in Erlenmeyer flasks for 90 min, to an OD600 ≈ 0.5. Then, 180 μl aliquots were transferred to 96-well plates, and 20 μl of the 200 μM drug solution was added to achieve a final concentration of 20 μM. The plates were incubated in a microplate reader (BioTek Synergy H1) at 37 °C with continuous shaking for 6 h. OD600 and mScarlet fluorescence were recorded throughout the incubation.
For analysis of the effect of anti-cancer compounds on stationary phase- and regrowing bacteria, the cultures were incubated for 24 h at 37 °C with shaking at 200 rpm in Erlenmeyer flasks. […] The samples were incubated for 24 h at 37 °C in standing 1.5 ml tubes. Before and after the drug treatment, 25 μl aliquots were taken and diluted by mixing with 175 μl PBS. OD600 and mScarlet fluorescence were recorded using a microplate reader (BioTek Synergy H1).
After the treatment, stationary-phase bacteria were harvested by centrifugation at 5000 × g for 5 min at 20 °C, washed twice with PBS, and resuspended in 475 μl PBS.

The subject of the next data set is TC7 cells. The data set is described as follows: TC7 cell viability upon drug exposure, MTS assay. It counts as cell-based. The following applies: at the MIC concentrations, 12 h, no bacteria. Here is the method: TC7 cells were grown to confluence in transparent 96-well cell culture plates (TPP) in the same cell culture medium used for the in vitro infection assay. Just prior to the experiment, the medium was discarded, and the cells were washed twice with sterile PBS to remove any traces of medium or dead cells. […] The plate was incubated at 37 °C in a CO2 incubator for 12 h, under the same conditions as the infection assay.
The 3-(4,5-dimethylthiazol-2-yl)-5-(3-carboxymethoxyphenyl)-2-(4-sulfophenyl)-2H-tetrazolium (MTS) assay was performed using the CellTiter 96® AQueous One Solution Cell Proliferation Assay kit (Promega), according to the manufacturer’s instructions. Briefly, 20 μl of CellTiter 96 AQueous One Solution Reagent was added to each well, and the plate was incubated for 2 h at 37 °C in a CO2 incubator. The OD490 of the samples was measured using a Spark multimode plate reader (Tecan). The raw values were normalized to the control wells incubated with infection buffer only. The experiment was performed in duplicate.

Setting [4] is: Staphylococcus aureus, DSM2569, S. aureus, regrowth delay of non-growing bacteria, 1:4 CA-MHB pH 7.4, 24 h treatment, OD600 8 h after dilution, read-out: EC50.
[5] abbreviates: Staphylococcus aureus, DSM2569, pH 7.4.
The mark [6] stands for this setting: S. aureus, drug concentration 0.1.
[7] abbreviates: S. aureus, drug concentration 0.5.
Where [8] appears, read: S. aureus, drug concentration 2.5.
Where [9] appears, read: S. aureus, drug concentration 10.

Like-named read-outs stand apart in the source and are kept apart here.

As to `CN1CCN(c2cc3c(cc2F)c(=O)c(C(=O)O)cn3-c2ccc(F)cc2)CC1` [Difloxacin], the “OD600 at 6h or 8h after dilution into drug-free medium (regrowth)” value in data set [1] (S. aureus, drug conc 0.1) amounted to 0.660; in data set [1] (S. aureus, drug conc 0.5), 0.630; in data set [1] (S. aureus, drug conc 2.5), 0.506; in data set [1] (S. aureus, drug conc 10) it was 0.371. For the same compound, the EC50 in data set [1] (setting [4]) was found to be 2.97 µM. The “speed of action: regrowth delay over treatment time” value (shortened to “speed … over treatment time”) in data set [2] is recorded as “act more slowly”.
With `Cn1c(COP(=O)(NCCBr)NCCBr)cnc1[N+](=O)[O-]` [Evofosfamide], the “OD600 at 8hr, Mean” value turned out to be 0.802 in data set [1] (S. aureus, 0.1 μM); 0.751 in data set [1] (S. aureus, 0.5 μM); 0.502 in data set [1] (S. aureus, 2.5 μM); 0.107 in data set [1] (S. aureus, 10 μM). In data set [1] (setting [5]), this compound showed an EC50 of 2.66 µM. Further, in data set [3], the “induction of the SOS response in growing UPEC cultures” value (“induction of the SOS response” below) is “induced the SOS response”. For the same compound, in data set [3], the “growth inhibition of growing UPEC” value is recorded as “only a slight growth inhibition”.
`CS[C@H]1SC[C@H]2C(=O)N(C)[C@@H](C(C)C)C(=O)OC[C@@H](NC(=O)c3cnc4ccccc4n3)C(=O)N[C@@H](C)C(=O)N(C)[C@@H]1C(=O)N(C)[C@@H](C(C)C)C(=O)OC[C@@H](NC(=O)c1cnc3ccccc3n1)C(=O)N[C@@H](C)C(=O)N2C` [Echinomycin]: in data set [3], the “induction of the SOS response” value is listed as “induced the SOS response”.
In the case of `CC(=O)[O][Pt]([NH2])([Cl])([Cl])([NH]C1CCCCC1)[O]C(C)=O` [Satraplatin], the “speed … over treatment time” value in data set [2] is recorded as “act more slowly”. Also, the “toxicity to TC7 epithelial cells” value in the data set on TC7 cells is recorded as “toxic”. In addition, in data set [3], the “induction of the SOS response” value was “induced the SOS response” and the “growth inhibition of growing UPEC” value is “only a slight growth inhibition”.
As for `CO[C@@]12[C@H](COC(N)=O)C3=C(C(=O)C(C)=C(N)C3=O)N1C[C@@H]1N[C@@H]12` [Mitomycin C], the “Regrowth, OD600 at 6h or 8h after dilution into drug-free medium (average)” value in data set [1] (setting [6]) was 0.433; in data set [1] (setting [7]), 0.163; in data set [1] (setting [8]) it was 0.087; in data set [1] (setting [9]) it was 0.106. The same compound yielded an EC50 in data set [1] (setting [5]) of 0.129 µM. Also, the “induction of the SOS response” value in data set [3] is “induced the SOS response”.
On to `C=C[C@]1(C)C[C@@H](OC(=O)CSC(C)(C)CNC(=O)[C@H](N)C(C)C)[C@]2(C)[C@H](C)CC[C@]3(CCC(=O)[C@H]32)[C@@H](C)[C@@H]1O` [Valnemulin], for which the “toxicity to TC7 epithelial cells” value with TC7 cells is reported as “toxic”.
Bleomycin: the “OD600 at 8hr, Mean” value in data set [1] (S. aureus, 0.1 μM) came out at 0.622; in data set [1] (S. aureus, 0.5 μM), 0.595; in data set [1] (S. aureus, 2.5 μM), 0.351; in data set [1] (S. aureus, 10 μM), 0.129. The EC50 in data set [1] (S. aureus, regrowth delay of non-growing bacteria, 1:4 CA-MHB pH 7.4, 24 h treatment, OD600 8 h after dilution, read-out: EC50) amounted to 2.56 µM. Further, in data set [3], the “induction of the SOS response” value was “induced the SOS response”.
Turning to Plicamycin, the “Regrowth, OD600 at 6h or 8h after dilution into drug-free medium (average)” value in data set [1] (setting [6]) stood at 0.578; in data set [1] (setting [7]), 0.347; in data set [1] (setting [8]) it was 0.205; in data set [1] (setting [9]) it was 0.143. In data set [1] (S. aureus, regrowth delay of non-growing bacteria, 1:4 CA-MHB pH 7.4, 24 h treatment, OD600 8 h after dilution), this compound yielded an EC50 of 0.359 µM. Besides, the “induction of the SOS response” value in data set [3] is “not detected”. Further, in data set [3], the “growth inhibition of growing UPEC” value is “only a slight growth inhibition”.
Take `CC1COc2c(N3CCN(C)CC3)c(F)cc3c(=O)c(C(=O)O)cn1c23` (stereo not shown) [Ofloxacin]: the “Regrowth, OD600 at 6h or 8h after dilution into drug-free medium” value in data set [1] (S. aureus, concentration 0.1) worked out at 0.643; in data set [1] (S. aureus, concentration 0.5), 0.590; in data set [1] (S. aureus, concentration 2.5), 0.519; in data set [1] (S. aureus, concentration 10), 0.417. Moreover, the EC50 in data set [1] (setting [4]) worked out at 14.3 µM. In addition, the “SOS induction during recovery of treated non-growing UPEC” value in data set [3] (10 μM, 24 h, then washed and diluted in CA-MHB, single control experiment) was “SOS induction during recovery”.
Turning to `CCCCC(CC)CNC(=N)NC(=N)NCCCCCCNC(=N)NC(=N)NCC(CC)CCCC` (stereo not shown) [Alexidine], the “Regrowth, OD600 at 6h or 8h after dilution into drug-free medium (average)” value is listed as 0.539 in data set [1] (setting [6]), 0.527 in data set [1] (setting [7]), 0.433 in data set [1] (setting [8]) and 0.087 in data set [1] (setting [9]). In data set [1] (setting [4]), the half-maximal effective concentration (EC50) is 3.28 µM. In addition, the “toxicity to TC7 epithelial cells” value in the data set with TC7 cells is listed as “toxic”.
As for `C[C@@H]1CN(c2c(F)c(N)c3c(=O)c(C(=O)O)cn(C4CC4)c3c2F)C[C@H](C)N1` [Sparfloxacin], in data set [2], the “speed … over treatment time” value is recorded as “act more slowly”.
`N[C@@H]1[C@H]2CN(c3nc4c(cc3F)c(=O)c(C(=O)O)cn4-c3ccc(F)cc3F)C[C@@H]12` [Trovafloxacin]: the “speed … over treatment time” value in data set [2] is recorded as “act more slowly”.

For the origin of these results see article PMC11992225, “Antibacterial compounds against non-growing and intracellular bacteria” (npj Antimicrobials and Resistance, 2025).
